Experimental data reported in patent publication US20260363251A1 (priority 2022, published 2026).

How the values were obtained:
Fusarium avenaceum = type: in vivo; conditions: 1 d preventive, 220 L/ha, 125 g/ha, 14DAI
Fusarium graminearum = type: in vivo; conditions: 1 d preventive, 220 L/ha, 125 g/ha, 7DAI
Mycosphaerella fijiensis = experiment: Treatment of black Sigatoka on banana (Table 10); type: in vivo; conditions: 1 d preventive, 400 L/ha, 75 g/ha, 63DAI, + 0.9% Orchex 796 + 0.1% Emulsogen M
Fusarium virguliforme = experiment: Seed treatment, soilborne Fusarium virguliforme in soybean in the greenhouse (Example 4.2); conditions: FS500, 40 g ai per 100 kg seeds; disease index vs infected control

## CON(C(=O)c1cn(C)nc1C(F)F)C(C)Cc1c(Cl)cc(Cl)cc1Cl (stereo not shown) [Pydiflumetofen]
Fusarium avenaceum
  disease symptom reduction (%) vs. Untreated: 96%
Fusarium graminearum
  disease symptom reduction (%) vs. Untreated: 94%
Mycosphaerella fijiensis
  disease symptom reduction (%) vs. Untreated: 97%
Fusarium virguliforme
  activity (%): 89%
